Measured values published in US20120015925A1, “NOVEL BENZOTHIAZEPINE AND BENZOTHIEPINE COMPOUNDS” (ASAHI KASEI PHARMA CORPORATION, priority 2004, published 2012).

Target: T1, human IBAT (Homo sapiens, UniProt Q12908)
T1 sequence (Q12908 1-348): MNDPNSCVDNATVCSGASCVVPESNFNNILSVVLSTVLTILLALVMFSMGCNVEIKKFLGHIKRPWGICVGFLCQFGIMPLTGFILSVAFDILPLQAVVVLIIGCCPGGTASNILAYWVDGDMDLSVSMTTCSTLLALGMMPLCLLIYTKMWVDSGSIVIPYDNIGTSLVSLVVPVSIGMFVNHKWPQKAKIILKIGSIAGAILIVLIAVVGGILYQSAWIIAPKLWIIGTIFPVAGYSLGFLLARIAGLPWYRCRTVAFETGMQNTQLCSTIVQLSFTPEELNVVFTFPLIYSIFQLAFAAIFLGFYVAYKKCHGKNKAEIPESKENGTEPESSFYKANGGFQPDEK
Experiment: In vitro assay using Cos 7 cells, transiently expressed human IBAT
Assay type: cell-based
Details: [3H]-taurocholate 8 μM uptake, 37° C., 60 minutes
Description: In the present Test Example, an in vitro assay of compounds using Cos 7 cells as to inhibitory activity on transiently expressed human IBAT or rat IBAT transporter was performed according to the method described in Am. J. Physiol., 274, G157-169.
That is, […] cells/well of Cos 7 cells were seeded in a 24-well plate, and after one day, the cells were transfected with 0.3 μg/well of cDNA of human IBAT or rat IBAT using FuGENE6 (supplied from Roche). After culturing for one day after the transfection, the cells were washed once with the assay buffer, i.e., Hanks buffer containing 25 mM glucose and 10 mM HEPES (pH 7.4). The assay buffer was then replaced with the assay buffer containing the test compound. [^3H]-Taurocholate at a final concentration of 8 μM was added thereto and incubated at 37° C. for 60 minutes so that [^3H]-taurocholate was taken into Cos 7 cells by the action of human IBAT or rat IBAT. The cells were washed twice with the assay buffer containing 1 mM taurocholate, and subsequently lysed with 0.2 M NaOH to stop the reaction. The cell lysate was added to 4 mL of liquid scintillation cocktail, which was then thoroughly vortexed. Then the radioactivity was measured using the liquid scintillation counter.

| Structure (SMILES) | IC50 [µM] |
| --- | --- |
| CCCCC1(CCCC)CS(=O)(=O)c2ccc(N(C)C)cc2C(c2cccc(NC(=S)Nc3ccc(C[n+]4ccc(CCCO)cc4)cc3)c2)N1 (stereo not shown) [EXAMPLE 3733] | 0.057 |
| CCCCC1(CCCC)CS(=O)(=O)c2ccc(N(C)C)cc2C(c2cccc(NC(=S)Nc3ccc(C[N+](C)(C)CCN(C)C)cc3)c2)N1 (racemic) [EXAMPLE 3506] | 0.127 |
| CCCCC1(CCCC)CS(=O)(=O)c2ccc(N(C)C)cc2C(c2cccc(NC(=S)Nc3ccc(C[n+]4cccc(-c5ccccc5)c4)cc3)c2)N1 (stereo not shown) [EXAMPLE 3724] | 0.069 |
| CCCCC1(CCCC)CS(=O)(=O)c2ccc(N(C)C)cc2C(c2cccc(NC(=S)Nc3ccc(C[n+]4cccc(Cl)c4)cc3)c2)N1 (stereo not shown) [EXAMPLE 5418] | 0.069 |
| CCCCC1(CCCC)CS(=O)(=O)c2ccc(N(C)C)cc2C(c2cccc(NC(=S)Nc3ccc(C[n+]4cccc(Cc5ccccc5)c4)cc3)c2)N1 (stereo not shown) [EXAMPLE 3725] | 0.052 |
| CCCCC1(CCCC)CS(=O)(=O)c2ccc(N(C)C)cc2C(c2cccc(NC(=S)Nc3ccc(C[n+]4c(C)cc(C)cc4C)cc3)c2)N1 (stereo not shown) [EXAMPLE 5409] | 0.042 |
| CCCCC1(CCCC)CS(=O)(=O)c2ccc(N(C)C)cc2C(c2cccc(NC(=S)Nc3ccc(C[N+](C)(C)C(C)c4ccccc4)cc3)c2)N1 (stereo not shown) [EXAMPLE 3441] | 0.085 |
| CCCCC1(CCCC)CS(=O)(=O)c2ccc(N(C)C)cc2C(c2cccc(NC(=S)Nc3ccc(C[n+]4ccc(C(C)(C)O)cc4)cc3)c2)N1 (stereo not shown) [EXAMPLE 5412] | 0.037 |
| CCCCC1(CCCC)CS(=O)(=O)c2ccc(N(C)C)cc2C(c2cccc(NC(=S)Nc3ccc(C[n+]4cc(C)cc(-c5ccccc5)c4)cc3)c2)N1 (racemic) [EXAMPLE 3730] | 0.084 |
| CCCCC1(CCCC)CS(=O)(=O)c2ccc(N(C)C)cc2C(c2cccc(NC(=S)Nc3ccc(C[N+](C)(C)Cc4cccs4)cc3)c2)N1 (racemic) [EXAMPLE 3449] | 0.055 |
| CCCCCCCCC[N+](C)(C)Cc1ccc(NC(=S)Nc2cccc(C3NC(CCCC)(CCCC)CS(=O)(=O)c4ccc(N(C)C)cc43)c2)cc1 (stereo not shown) [EXAMPLE 3413] | 0.073 |
| CCCCC1(CCCC)CS(=O)(=O)c2ccc(N(C)C)cc2C(c2cccc(NC(=S)Nc3ccc(C[n+]4cccc(C(=O)c5ccccc5)c4)cc3)c2)N1 (racemic) [EXAMPLE 3748] | 0.081 |
| CCCCC1(CCCC)CS(=O)(=O)c2ccc(N(C)C)cc2C(c2cccc(NC(=S)Nc3ccc(C[N+](C)(C)CC(C)O)cc3)c2)N1 (racemic) [EXAMPLE 3454] | 0.068 |
| CCCCC1(CCCC)CS(=O)(=O)c2ccc(N(C)C)cc2C(c2cccc(NC(=S)NCCC[N+]3(Cc4ccccc4)CCCC(CO)C3)c2)N1 (stereo not shown) [EXAMPLE 592] | 0.1 |
| CCCCC1(CCCC)CS(=O)(=O)c2ccc(N(C)C)cc2C(c2cccc(NC(=S)Nc3ccc(C[n+]4ccc(C(c5ccccc5)c5ccccc5)cc4)cc3)c2)N1 (stereo not shown) [EXAMPLE 5410] | 0.1 |
| CCCCC1(CCCC)CS(=O)(=O)c2ccc(N(C)C)cc2C(c2cccc(NC(=S)Nc3ccc(C[n+]4ccccc4C)cc3)c2)N1 (stereo not shown) [EXAMPLE 5407] | 0.052 |
| CCCCC1(CCCC)CS(=O)(=O)c2ccc(N(C)C)cc2C(c2cccc(NC(=S)Nc3ccc(C[N+]45CCC(CC4)C(O)C5)cc3)c2)N1 (racemic) [EXAMPLE 3697] | 0.069 |
| CCCCCCOC(=O)c1ccc[n+](Cc2ccc(NC(=S)Nc3cccc(C4NC(CCCC)(CCCC)CS(=O)(=O)c5ccc(N(C)C)cc54)c3)cc2)c1 (stereo not shown) [EXAMPLE 3750] | 0.075 |
| CCCCC1(CCCC)CS(=O)(=O)c2ccc(N(C)C)cc2C(c2cccc(NC(=S)Nc3ccc(C[N+]4(C)CCC(O)CC4)cc3)c2)N1 (stereo not shown) [EXAMPLE 3599] | 0.054 |
| CCCCC1(CCCC)CS(=O)(=O)c2ccc(N(C)C)cc2C(c2cccc(NC(=S)Nc3ccc(C[n+]4cccc(F)c4)cc3)c2)N1 (stereo not shown) [EXAMPLE 5416] | 0.077 |
| CCCCC1(CCCC)CS(=O)(=O)c2ccc(N(C)C)cc2C(c2cccc(NC(=S)Nc3ccc(C[n+]4cc(C)cc(C)c4)cc3)c2)N1 (stereo not shown) [EXAMPLE 3729] | 0.088 |
| CCCCC1(CCCC)CS(=O)(=O)c2ccc(N(C)C)cc2C(c2cccc(NC(=S)Nc3ccc(C[N+]4(Cc5ccccc5)CCCC(O)C4)cc3)c2)N1 (stereo not shown) [EXAMPLE 3604] | 0.045 |
| CCCCC1(CCCC)CS(=O)(=O)c2ccc(N(C)C)cc2C(c2cccc(NC(=S)CCCCC[N+]34CCC(CC3)C(O)C4)c2)N1 (stereo not shown) [EXAMPLE 3854] | 0.028 |
| CCCCC1(CCCC)CS(=O)(=O)c2ccc(N(C)C)cc2C(c2cccc(NC(=S)Nc3ccc(C[N+]45CCC(CC4)C(=O)C5)cc3)c2)N1 (stereo not shown) [EXAMPLE 3698] | 0.072 |
| CCCCC1(CCCC)CS(=O)(=O)c2ccc(N(C)C)cc2C(c2cccc(NC(=S)Nc3ccc(C[n+]4ccc(C)c(C)c4)cc3)c2)N1 (stereo not shown) [EXAMPLE 3727] | 0.066 |
| CCCCC1(CCCC)CS(=O)(=O)c2ccc(N(C)C)cc2C(c2cccc(NC(=S)Nc3ccc(C[n+]4ccccc4CCOC(C)C)cc3)c2)N1 (stereo not shown) [EXAMPLE 5420] | 0.068 |

Other lines, results leading:

| IC50 [µM] | Structure (SMILES) |
| --- | --- |
| 0.028 | CCCCC1(CCCC)CS(=O)(=O)c2ccc(N(C)C)cc2C(c2cccc(NC(=S)Nc3ccc(C[n+]4ccc(C(C)(C)C)cc4)c(Br)c3)c2)N1 (stereo not shown) [EXAMPLE P371] |
| 0.044 | CCCCC1(CCCC)CS(=O)(=O)c2ccc(N(C)C)cc2C(c2cccc(NC(=S)Nc3ccc(C[N+](C)(C)Cc4ccccc4)c(Cl)c3)c2)N1 (stereo not shown) [EXAMPLE P333] |
| 0.042 | CCCCC1(CCCC)CS(=O)(=O)c2ccc(N(C)C)cc2C(c2cccc(NC(=S)Nc3ccc(C[N+]45CCC(CC4)CC5)c(F)c3)c2)N1 (stereo not shown) [EXAMPLE P319] |
| 0.029 | CCCCC1(CCCC)CS(=O)(=O)c2ccc(N(C)C)cc2C(c2cccc(NC(=S)Nc3ccc(C[n+]4ccc(C(C)(C)C)cc4)cc3Cl)c2)N1 (stereo not shown) [EXAMPLE P368] |
| 0.026 | CCCCC1(CCCC)CS(=O)(=O)c2ccc(N(C)C)cc2C(c2cccc(NC(=S)Nc3ccc(C[n+]4ccc(-c5ccccc5)cc4)c(Br)c3)c2)N1 (stereo not shown) [EXAMPLE P383] |
| 0.047 | CCCCC1(CCCC)CS(=O)(=O)c2ccc(N(C)C)cc2C(c2cccc(NC(=S)Nc3c(C)cc(C[N+](C)(C)Cc4ccccc4)cc3C)c2)N1 (stereo not shown) [EXAMPLE P338] |
| 0.1 | CCCCC1(CCCC)CS(=O)(=O)c2ccc(N(C)C)cc2C(c2cccc(NC(=S)Nc3c(C)cc(C[N+]45CCC(CC4)CC5)cc3C)c2)N1 (stereo not shown) [EXAMPLE P326] |
| 0.041 | CCCCC1(CCCC)CS(=O)(=O)c2ccc(N(C)C)cc2C(c2cccc(NC(=S)Nc3ccc(C[N+]45CCC(CC4)CC5)cc3Cl)c2)N1 (stereo not shown) [EXAMPLE P320] |
| 0.028 | CCCCC1(CCCC)CS(=O)(=O)c2ccc(N(C)C)cc2C(c2cccc(NC(=S)Nc3ccc(C[N+]45CCC(c6ccccc6)(CC4)CC5)cc3F)c2)N1 (stereo not shown) [Example P316, 1-(4-{3-[3-(3,3-dibutyl-7-dimethylamino-1,1-dioxo-2,3,4,5-tetrahydro-1,4-benzothiazepine-5-yl)phenyl]thioureido}-3-fluorobenzyl)-4-phenyl-1-azoniabicyclo[2.2.2]octane bromide] |
| 0.068 | CCCCC1(CCCC)CS(=O)(=O)c2ccc(N(C)C)cc2C(c2cccc(NC(=S)Nc3ccc(C[N+](C)(C)Cc4ccccc4)c(Br)c3)c2)N1 (stereo not shown) [EXAMPLE P335] |
| 0.049 | CCCCC1(CCCC)CS(=O)(=O)c2ccc(N(C)C)cc2C(c2cccc(NC(=S)Nc3ccc(C[N+]45CCC(CC4)CC5)cc3C)c2)N1 (stereo not shown) [EXAMPLE P317] |
| 0.023 | CCCCC1(CCCC)CS(=O)(=O)c2ccc(N(C)C)cc2C(c2cccc(NC(=S)Nc3ccc(C[n+]4ccc(C(C)(C)C)cc4)c(F)c3)c2)N1 (stereo not shown) [EXAMPLE P367] |
| 0.097 | CCCCC1(CCCC)CS(=O)(=O)c2ccc(N(C)C)cc2C(c2cccc(NC(=S)Nc3ccc(C[n+]4ccc(C(C)(C)C)cc4)c([N+](=O)[O-])c3)c2)N1 (stereo not shown) [EXAMPLE P373] |
| 0.038 | CCCCC1(CCCC)CS(=O)(=O)c2ccc(N(C)C)cc2C(c2cccc(NC(=S)Nc3ccc(C[N+](C)(C)Cc4ccccc4)cc3C)c2)N1 (stereo not shown) [EXAMPLE P328] |
| 0.028 | CCCCC1(CCCC)CS(=O)(=O)c2ccc(N(C)C)cc2C(c2cccc(NC(=S)Nc3ccc(C[n+]4ccc(-c5ccccc5)cc4)c(Cl)c3)c2)N1 (stereo not shown) [EXAMPLE P381] |
| 0.028 | CCCCC1(CCCC)CS(=O)(=O)c2ccc(N(C)C)cc2C(c2cccc(NC(=S)Nc3ccc(C[n+]4ccc(-c5ccccc5)cc4)cc3Br)c2)N1 (stereo not shown) [EXAMPLE P382] |
| 0.037 | CCCCC1(CCCC)CS(=O)(=O)c2ccc(N(C)C)cc2C(c2cccc(NC(=S)Nc3ccc(C[N+](C)(C)Cc4ccccc4)cc3Br)c2)N1 (stereo not shown) [EXAMPLE P334] |
| 0.06 | CCCCC1(CCCC)CS(=O)(=O)c2ccc(N(C)C)cc2C(c2cccc(NC(=S)Nc3c(C)cc(C[n+]4ccc(-c5ccccc5)cc4)cc3C)c2)N1 (stereo not shown) [EXAMPLE P386] |
| 0.035 | CCCCC1(CCCC)CS(=O)(=O)c2ccc(N(C)C)cc2C(c2cccc(NC(=S)Nc3ccc(C[n+]4ccc(C(C)(C)C)cc4)c(C(F)(F)F)c3)c2)N1 (stereo not shown) [EXAMPLE P372] |
| 0.032 | CCCCC1(CCCC)CS(=O)(=O)c2ccc(N(C)C)cc2C(c2cccc(NC(=S)Nc3ccc(C[n+]4ccc(-c5ccccc5)cc4)c(C(F)(F)F)c3)c2)N1 (stereo not shown) [EXAMPLE P384] |
